Structures are written as SMILES. ≈ marks a conversion by molar mass, not a printed value. Bounds are passed on as bounds.

Here are results for 7 compounds from patent US5399711A, “Thiomarinol compounds” (Sankyo Company, Limited, priority 1992, dated 1995).

The subject of one data set is bacteria. The conditions noted are these: compared with the thiomarinol derivatives or with pseudomonic acid; cited from earlier work.
Data set [1] relates to Mycoplasma hyosynoviae S-16. Description: Antimycoplasmal MIC (Test Example 2). The format is cell-based. The conditions noted are these: S16, 120 h, Mucin PPLO agar medium, 15% horse serum, 0.005 ml of 10^5 CFU/ml, 37° C., 5 days. On the procedure: Following the same procedure as for Test Example 1, the activity of thiomarinol, thiomarinol B, thiomarinol C and pseudomonic acid A (identified as "A", "B", "C" and "P", respectively) was assayed against various species of mycoplasma. Inoculum: 0.005 ml of 10^5 CFU/ml Thiomarinol B, Thiomarinol C and Pseudomonic acid A were all assayed on Chanock medium [prepared as described in P.N.A.S., 48, 41-49 (1962) and supplemented with 20% horse serum] for all microorganisms; Thiomarinol was assayed on the following media: M. hyosynoviae: Mucin PPLO* agar medium (15% horse serum supplemented) |*PPLO ( -- Pleuro -- Pneumonia- -- Like -- Organism) |PPLO Broth without CV (Difco) | 21 g |Mucin bacteriological (Difco) | 5 g |Distilled water 800 ml |Agar Noble (Difco) 12 g |Equine serum 150 ml |25% Fresh yeast extract | 50 ml Culture conditions: 37° C., 5 days, slightly aerobic (BBL gas pack method [cultivation in disposable CO2 generator from Becton Dickinson Microbiology Systems, Cockeysville, Md. 2103 U.S.A.])

For another data set, the system named is Proteus vulgaris 1420. As to the kind of experiment: MIC, agar medium dilution method (Test Example 1). The format is cell-based. The conditions noted are these: nutrient agar. On the procedure:
(§1) The minimum inhibitory concentration (MIC) of thiomarinol, thiomarinol B, thiomarinol C and pseudomonic acid A (identified as "A", "B", "C" and "P", respectively) given as μg/ml, against gram-positive and gram-negative bacteria was determined by the agar medium dilution method, using a nutrient agar medium (Product of Eiken Chemical Co., Ltd.).

Data set [2] concerns Pseudomonas aerucrinosa 1001. As to the kind of experiment: MIC, agar medium dilution method (Test Example 1). The format is cell-based. The note with it: nutrient agar. On the procedure:
as §1

A further data set has as its system Serratia marcescens 1184. As to the kind of experiment: MIC, agar medium dilution method (Test Example 1). The note with it: nutrient agar. The format is cell-based. On the procedure: as §1
For data set [3], the system named is Staphylococcus aureus 535 (MRSA). Description: MIC, agar medium dilution method (Test Example 1). The format is cell-based. The conditions noted are these: nutrient agar. The procedure:
as §1

Data set [4] relates to Morcranella morganii 1510. As to the kind of experiment: MIC, agar medium dilution method (Test Example 1). It counts as cell-based. The conditions noted are these: nutrient agar. The procedure: as §1
The subject of another data set is Enterobacter cloacae 963. As to the kind of experiment: MIC, agar medium dilution method (Test Example 1). The format is cell-based. The note with it: nutrient agar. On the procedure:
as §1

Data set [5] concerns Staphylococcus aureus 56R. As to the kind of experiment: MIC, agar medium dilution method (Test Example 1). The format is cell-based. The conditions noted are these: nutrient agar. The procedure:
as §1

The subject of data set [6] is Klebsiella pneumoniae 806. Description: MIC, agar medium dilution method (Test Example 1). It counts as cell-based. The note with it: nutrient agar. On the procedure:
as §1

A further data set deals with Escherichia coli NIHJ. Description: MIC, agar medium dilution method (Test Example 1). It counts as cell-based. The note with it: nutrient agar. On the procedure: as §1
For another data set, the system named is Salmonella enteritidis. As to the kind of experiment: MIC, agar medium dilution method (Test Example 1). The format is cell-based. The note with it: Salmonella enterica, nutrient agar. On the procedure: as §1
In data set [7] the test system is Pseudomonas aerucrinosa No. 7. As to the kind of experiment: MIC, agar medium dilution method (Test Example 1). The note with it: nutrient agar. It counts as cell-based. The procedure:
as §1

Data set [8] relates to Enterococcus faecalis 681. As to the kind of experiment: MIC, agar medium dilution method (Test Example 1). The format is cell-based. The note with it: nutrient agar. The procedure:
as §1

Data set [9] concerns Klebsiella pneumoniae 846 (R). Description: MIC, agar medium dilution method (Test Example 1). It counts as cell-based. The conditions noted are these: nutrient agar. On the procedure:
as §1

In data set [10] the test system is Staphylococcus aureus 209P. As to the kind of experiment: MIC, agar medium dilution method (Test Example 1). It counts as cell-based. The conditions noted are these: nutrient agar. The procedure:
as §1

The test system of a further data set is Escherichia coli 609. Description: MIC, agar medium dilution method (Test Example 1). The conditions noted are these: nutrient agar. The format is cell-based. The procedure:
as §1

The test system of data set [11] is gram-positive and gram-negative bacteria. As to the kind of experiment: Antibacterial activity, overall comparison. The format is cell-based. The conditions noted are these: for antibacterial activity compared with pseudomonic acid A: general statement. The procedure:
as §1

Another data set is described as follows: Solubility. It counts as physicochemical. The conditions noted are these: for solubility (insoluble in): hexane and water; for solubility (soluble in): organic solvents.
Data set [12] relates to Pseudomonas aeruginosa 3719. As to the kind of experiment: MIC, agar medium dilution method (Test Example 1). The note with it: nutrient agar. It counts as cell-based. The procedure:
as §1

In data set [13] the test system is Mycoplasma hyorhinis BTS 7. As to the kind of experiment: Antimycoplasmal MIC (Test Example 2). It counts as cell-based. The conditions noted are these: BTS7, 120 h, Chanock medium, 20% horse serum, 0.005 ml of 10^5 CFU/ml, 37° C., 5 days. The procedure:
Following the same procedure as for Test Example 1, the activity of thiomarinol, thiomarinol B, thiomarinol C and pseudomonic acid A (identified as "A", "B", "C" and "P", respectively) was assayed against various species of mycoplasma. Inoculum: 0.005 ml of 10^5 CFU/ml Thiomarinol B, Thiomarinol C and Pseudomonic acid A were all assayed on Chanock medium [prepared as described in P.N.A.S., 48, 41-49 (1962) and supplemented with 20% horse serum] for all microorganisms; Culture conditions: 37° C., 5 days, slightly aerobic (BBL gas pack method [cultivation in disposable CO2 generator from Becton Dickinson Microbiology Systems, Cockeysville, Md. 2103 U.S.A.])

In the next data set the test system is mycoplasma. Description: Anti-mycoplasmal activity, overall comparison. The format is cell-based. The note with it: compared with thiomarinol and pseudomonic acid A; Table 2. On the procedure:
Following the same procedure as for Test Example 1, the activity of thiomarinol, thiomarinol B, thiomarinol C and pseudomonic acid A (identified as "A", "B", "C" and "P", respectively) was assayed against various species of mycoplasma.

A further data set concerns tumor. The conditions noted are these: Japanese Patent Kokai Application Number Sho 63-27484; cited from earlier work.

In the case of `CC(=CC(=O)OCCCCCCCCC(=O)O)CC1OCC(CC=CC(C)C(C)O)C(O)C1O` (stereo not drawn) [pseudomonic acid C], in the data set on bacteria, the “antibacterial activity of prior art compounds” value is “weaker antibacterial activities than do the thiomarinol derivatives of the present invention”.

One may read the MIC as the smallest concentration in the dilution series that meets the test's criterion for growth inhibition. Regarding `C/C(=C\C(=O)OCCCCCCCC(=O)Nc1c2sscc-2[nH]c1=O)C(O)C1OCC(C/C=C/C(C)C(C)O)C(O)C1O` (stereo not drawn) [thiomarinol], the minimal inhibitory concentration (MIC) in data set [1] is 0.025 µg/mL (≈ 0.039 µM); with Proteus vulgaris 1420, 0.05 µg/mL (≈ 0.078 µM); in [2], 0.2 µg/mL (≈ 0.312 µM); in the data set on Serratia marcescens 1184, 3.1 µg/mL (≈ 4.84 µM); in data set [3], at most 0.01 µg/mL; in [4] it was 6.2 µg/mL (≈ 9.68 µM). The MIC is 1.5 µg/mL (≈ 2.34 µM) against Enterobacter cloacae 963; at most 0.01 µg/mL in [5]; 0.8 µg/mL (≈ 1.25 µM) in data set [6]; 0.8 µg/mL (≈ 1.25 µM) in the data set with Escherichia coli NIHJ; 0.4 µg/mL (≈ 0.624 µM) against Salmonella enteritidis; 0.4 µg/mL (≈ 0.624 µM) in [7]. For the same compound, the minimum inhibitory concentration (MIC) was 0.02 µg/mL (≈ 0.0312 µM) in data set [8], 0.2 µg/mL (≈ 0.312 µM) in [9], at most 0.01 µg/mL in data set [10] and 0.8 µg/mL (≈ 1.25 µM) against Escherichia coli 609. In addition, the “antibacterial activity compared with pseudomonic acid A” value in [11] is reported as “significantly more potent antibacterial activity than does pseudomonic acid A”. Further, the “solubility (insoluble in)” value in the data set “Solubility” was “insoluble in hexane and water”. Moreover, the “solubility (soluble in)” value in the data set “Solubility” was “Soluble in alcohols such as methanol, ethanol, propanol and butanol; and soluble in dimethyl sulfoxide, dimethylformamide, chloroform, ethyl acetate, acetone and diethyl ether”.

As to `CC(=CC(=O)OCCCCCCCCC(=O)O)CC1OCC(CC2OC2C(C)C(C)O)C(O)C1O` (stereo not drawn) [pseudomonic acid A], the MIC in the data set with Proteus vulgaris 1420 was 0.4 µg/mL (≈ 0.799 µM); in [12], above 100 µg/mL; in data set [2], above 100 µg/mL; in the data set with Serratia marcescens 1184, above 100 µg/mL; in [3], 0.2 µg/mL (≈ 0.399 µM); in data set [4], above 100 µg/mL. In addition, the minimal inhibitory concentration (MIC) against Enterobacter cloacae 963 is above 100 µg/mL; in data set [5], 0.1 µg/mL (≈ 0.2 µM); in [6] it was 100 µg/mL (≈ 200 µM); with Escherichia coli NIHJ it was 100 µg/mL (≈ 200 µM); against Salmonella enteritidis it was 50 µg/mL (≈ 99.9 µM); in [7], above 100 µg/mL. In addition, the MIC in [8] came to 25 µg/mL (≈ 49.9 µM); in data set [9], 100 µg/mL (≈ 200 µM); in data set [10], 0.05 µg/mL (≈ 0.0999 µM); against Escherichia coli 609 it was 100 µg/mL (≈ 200 µM); in data set [13], 0.39 µg/mL (≈ 0.779 µM). Besides, the “antibacterial activity of prior art compounds” value in the data set on bacteria is reported as “weaker antibacterial activities than do the thiomarinol derivatives of the present invention”.

With `C/C(=C\C(=O)OCCCCCCCC(=O)Nc1c2sscc-2[nH]c1=O)CC1OCC(C/C=C/C(C)C(C)O)C(O)C1O` (stereo not drawn) [thiomarinol C], the MIC in the data set with Proteus vulgaris 1420 was 0.2 µg/mL (≈ 0.32 µM); in data set [12] it was 0.4 µg/mL (≈ 0.64 µM); in data set [2] it was 0.8 µg/mL (≈ 1.28 µM); in the data set on Serratia marcescens 1184, 6.2 µg/mL (≈ 9.92 µM); in data set [3], at most 0.01 µg/mL; in data set [4], 12.5 µg/mL (≈ 20 µM). The minimal inhibitory concentration (MIC) is 3.1 µg/mL (≈ 4.96 µM) in the data set on Enterobacter cloacae 963; at most 0.01 µg/mL in data set [5]; 1.5 µg/mL (≈ 2.4 µM) in data set [6]; 3.1 µg/mL (≈ 4.96 µM) with Escherichia coli NIHJ; 1.5 µg/mL (≈ 2.4 µM) in the data set with Salmonella enteritidis; 0.8 µg/mL (≈ 1.28 µM) in [7]. Moreover, the MIC in data set [8] was 0.8 µg/mL (≈ 1.28 µM); in data set [9], 0.8 µg/mL (≈ 1.28 µM); in data set [10], at most 0.01 µg/mL; with Escherichia coli 609, 1.5 µg/mL (≈ 2.4 µM); in data set [13], 1.56 µg/mL (≈ 2.5 µM). The antibacterial activity result in data set [11] (compared with thiomarinol and pseudomonic acid A, Table 1) is “at least as good as those of thiomarinol and are, in general, significantly better than those of pseudomonic acid A”. The “antibacterial activity compared with pseudomonic acid A” value in data set [11] is on record as “significantly more potent antibacterial activity than does pseudomonic acid A”. Further, in the data set on mycoplasma, the anti-mycoplasmal activity result is “at least as good as those of thiomarinol and are, in general, significantly better than those of pseudomonic acid A”. The “solubility (insoluble in)” value in the data set “Solubility” is “Insoluble in hexane and water”. In addition, the “solubility (soluble in)” value in “Solubility” was “Soluble in alcohols such as methanol, ethanol, propanol and butanol, as well as in dimethyl sulfoxide, dimethylformamide, chloroform, ethyl acetate, acetone and diethyl ether”.

As for `C/C(=C\C(=O)OCCCCCCCCC(=O)O)C[C@@H]1OC[C@](O)(C[C@@H]2O[C@H]2[C@@H](C)[C@H](C)O)[C@@H](O)[C@H]1O` [pseudomonic acid B], the “antibacterial activity of prior art compounds” value in the data set with bacteria is “weaker antibacterial activities than do the thiomarinol derivatives of the present invention”.

Take `CC(=CC(=O)OCCCCC=CCCC(=O)O)CC1OCC(CC2OC2C(C)C(C)O)C(O)C1O` (stereo not drawn) [pseudomonic acid D]: in the data set on bacteria, the “antibacterial activity of prior art compounds” value is recorded as “weaker antibacterial activities than do the thiomarinol derivatives of the present invention”.

Consider `O=C1CCC(=O)N(O)CCCCCNC(=O)CCC(=O)N(O)CCCCCN1` [bisucaberin], for which the antitumor activity result with tumor is reported as “exhibit antitumor activity”.
